Data reported in paper PMC4418665, “Cyclization of the Urokinase Receptor-Derived Ser-Arg-Ser-Arg-Tyr Peptide Generates a Potent Inhibitor of Trans-Endothelial Migration of Monocytes” (PLoS ONE, 2015).
Peptide text beside a SMILES is read from it.

Experiments:
[1] = Serum stability in human serum (RP-HPLC); assay type: in vitro ADME; conditions: 37°C, peptide 10^-2 mol/L, acetonitrile precipitation; for remaining at 1 h: RP-HPLC C18, % of concentration at time 0, read-out: residual concentration after one hour of exposure to serum; for remaining at 24 h: RP-HPLC C18, % of concentration at time 0, read-out: residual concentration after 24 hours in serum
Experimental: Cyclization of peptides listed in Table 1was obtained as described in the Material and Methods, using the strategy depicted in the S1 Fig. The stability of the linear peptide Ser-Arg-Ser-Arg-Tyr (SRSRY) and cyclized peptide Ser-Arg-Ser-Arg-Tyr [SRSRY] in human serum was investigated through incubation of the peptide at a 10^–2 mol/L in human serum and samples were taken at different time points and analysed by Reversed-phase chromatography (RP-HPLC). Serum-dependent degradation of peptides was monitored for up to 24 hours.
Fig 1 Stability of SRSRY and [SRSRY] peptides in human serum. The stability of [SRSRY] and SRSRY was performed by the injection of the peptide at a 10^–2 mol/L in human serum at 37°C. Intervals of analysis by RP-HPLC on the compound incubated in serum were carried out growing with time from 1 to 24 hours. Values are expressed as a percentage of peptide concentration assessed at time 0. [SRSRY]
The stability of SRSRY and [SRSRY] was investigated in human serum. The peptides were incubated at 37°C in human serum at a concentration of 10^-2mol/L. Aliquots ([…]) of serum were removed at time points varying from 0, 1, 2, 4, 6, and 24 hours and acetonitrile ([…]) was added to each aliquot before centrifuging (13000 rpm, 15 min). Aliquots ([…]) of the supernatant were then analyzed by RP-HPLC after passing through Phenomenex Luna 100A C18 5μ, linear gradient from 0–90% acetonitrile in water over 25 minutes.

FPR1 = target: T1, FPR1 (Homo sapiens, UniProt P21462); assay: Ligand binding assay, competition with FITC-fMLF at 4°C, THP-1 cells; parameters: host or cells: THP-1 human monocytic leukemia cells; conditions: excess (100 nM) unlabeled peptide 60 min at 4°C, then 10 nM FITC-fMLF 60 min at 4°C; triplicates
T1 sequence (P21462 1-350): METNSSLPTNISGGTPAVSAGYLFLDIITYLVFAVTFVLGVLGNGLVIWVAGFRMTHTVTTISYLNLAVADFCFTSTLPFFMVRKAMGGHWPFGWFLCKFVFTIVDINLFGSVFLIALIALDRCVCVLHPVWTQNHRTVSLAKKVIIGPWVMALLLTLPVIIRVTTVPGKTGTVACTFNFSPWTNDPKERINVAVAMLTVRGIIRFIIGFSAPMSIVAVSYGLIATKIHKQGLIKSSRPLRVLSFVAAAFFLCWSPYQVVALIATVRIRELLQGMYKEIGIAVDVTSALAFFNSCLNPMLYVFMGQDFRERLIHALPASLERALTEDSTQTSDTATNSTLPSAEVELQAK
Experimental: Once documented that both SRSRY and [SRSRY] peptides compete with fMLF for binding to FPR1, we investigated the effect of [SRSRY] on the motility of monocytes. Preliminarily, we assessed whether [SRSRY] is a ligand of FPR1 on monocyte cell surface. […] (Fig 3A). When binding experiments were performed at 37°C, FPR1 appeared mainly localized within the cytoplasm, adjacent but outside the nucleus of THP-1 cells.
Fig 3 The peptide [SRSRY] binds to FPR1 on THP-1 cell surface. A. THP-1 cells (1.5 x10^6 cells/sample) were pre-incubated with diluents (None), 100 nM fMLF, 100 nM SRSRY or 100 nM [SRSRY] peptides for 60 minutes at 4°C, then exposed to 10 nM N-formyl-Nle-Leu-Phe-Nle-Tyr-Lys-fluorescein (FITC-fMLF) for additional 60 minutes at 4°C. Fluorimetric measurement of cell-associated fluorescence was assed using 485 nm excitation and 535 nm emission filters. Data are expressed as a percentage of the fluorescence associated to THP-1 cells exposed to FITC-fMLF alone (None = 100%) and represent a mean ± SD from triplicates. *Statistical significance (t-test) against None with p<0.001. B. THP-1 cells incubated with diluents (None), 100 nM fMLF, 100 nM SRSRY or 100 nM [SRSRY] peptides for 30 minutes at 37°C and exposed to 10 nM FITC-fMLF for additional 30 minutes at 37°C. Scale bar: 5 μm. Original magnifications: 630x. […]

Row | remaining at 1 h [1] [%] | remaining at 24 h [1] [%] | binding of FITC-fMLF to THP-1 cells (FPR1) | Structure (SMILES)
1 | < 75 | < 50 | dramatically reduced | N=C(N)NCCC[C@H](NC(=O)[C@H](CO)NC(=O)[C@H](CCCNC(=N)N)NC(=O)[C@@H](N)CO)C(=O)N[C@@H](Cc1ccc(O)cc1)C(N)=O [SRSRY, H-Ser-Arg-Ser-Arg-Tyr-NH2] (H-SRSRY-NH2)
2 | < 85 | > 80 | dramatically reduced | N=C(N)NCCC[C@@H]1NC(=O)[C@H](CO)NC(=O)[C@H](Cc2ccc(O)cc2)NC(=O)[C@H](CCCNC(=N)N)NC(=O)[C@H](CO)NC1=O [[SRSRY], [Ser-Arg-Ser-Arg-Tyr]] (cyclo(RSRYS))
